Measured values published in PubChem BioAssay (NCI).
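Dose response: 5 concentrations. Exposure: 48 h. Format: 96-well plates. Endpoint: linear interpolation; highest concentration if not reached. The concentration for full growth arrest is given as TGI.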

What was measured:
Test in all cases: DTP human tumour cell line panel, 48 h
[1] = tested on: 786-0 renal
[2] = tested on: A498 renal
[3] = tested on: A549 NSCLC
[4] = tested on: ACHN renal
[5] = tested on: BT-549 breast
[6] = tested on: CAKI-1 renal
[7] = tested on: COLO 205 colon
[8] = tested on: DU-145 prostate
[9] = tested on: EKVX NSCLC
[10] = tested on: HCC-2998 colon
[11] = tested on: HCT-116 colon
[12] = tested on: HCT-15 colon
[13] = tested on: HL-60(TB) leukemia
[14] = tested on: HOP-62 NSCLC
[15] = tested on: HOP-92 NSCLC
[16] = tested on: HS 578T breast
[17] = tested on: HT29 colon
[18] = tested on: IGROV1 ovarian
[19] = tested on: K-562 leukemia
[20] = tested on: KM12 colon
[21] = tested on: LOX IMVI melanoma
[22] = tested on: M14 melanoma
[23] = tested on: MCF7 breast
[24] = tested on: MDA-MB-231 breast
[25] = tested on: MDA-MB-435
[26] = tested on: MDA-N
[27] = tested on: MOLT-4 leukemia
[28] = tested on: NCI-H226 lung
[29] = tested on: NCI-H23 lung
[30] = tested on: NCI-H460 lung
[31] = tested on: NCI-H522 lung
[32] = tested on: NCI/ADR-RES ovarian
[33] = tested on: OVCAR-3 ovarian
[34] = tested on: OVCAR-4 ovarian
[35] = tested on: OVCAR-5 ovarian
[36] = tested on: OVCAR-8 ovarian
[37] = tested on: PC-3 prostate
[38] = tested on: RPMI-8226 leukemia
[39] = tested on: RXF 393 renal
[40] = tested on: SF-268 CNS
[41] = tested on: SF-295 CNS
[42] = tested on: SF-539 CNS
[43] = tested on: SK-MEL-2 melanoma
[44] = tested on: SK-MEL-28 melanoma
[45] = tested on: SK-MEL-5 melanoma
[46] = tested on: SK-OV-3 ovarian
[47] = tested on: SN12C renal
[48] = tested on: SNB-75 CNS
[49] = tested on: SR leukemia
[50] = tested on: SW-620 colon
[51] = tested on: T-47D breast
[52] = tested on: TK-10 renal
[53] = tested on: U251 CNS
[54] = tested on: UACC-257 melanoma
[55] = tested on: UACC-62 melanoma
[56] = tested on: UO-31 renal
[57] = tested on: CCRF-CEM leukemia
[58] = tested on: MALME-3M melanoma
[59] = tested on: SNB-19 CNS

Measured: TGI

C/C=C(\C)C(=O)OC1CC(OC(C)=O)C2(C(=O)OC)COC3C2C1(C)C1C2(C(=O)OC)OCC1(C3O)C1(O)C3CC(C4(O)C=COC4O3)C1(C)O2 (centres undefined)
not listed: [57] | [58] | [59]
> 100 µM: all other assays above

O=c1[nH]c(=O)n(C2CC(O)C(CO)O2)cc1Oc1ccccc1 (centres undefined)
not listed: [2] | [10] | [15] | [42] | [43] | [50]
> 100 µM: all other assays above
